Legend:
[1] = Cytotoxicity in human HepaRG cells assessed as reduction in cell viability incubated for 14 days by CellTiter-Glo assay; type: cell-based
[2] = system: nuclear ribosomal-DNA level; test: Mitochondrial toxicity in human HepG2 cells assessed as inhibition of nuclear ribosomal-DNA level at 12.5 uM followed by medium plus drugs replenishment every 3 to 4 days for 14 days relative to control; type: cell-based
[3] = system: cytochrome c oxidase subunit 2 DNA level; test: Mitochondrial toxicity in human HepG2 cells assessed as inhibition of cytochrome c oxidase subunit 2 DNA level followed by medium plus drugs replenishment every 3 to 4 days for 14 days relative to control; type: cell-based
[4] = system: cytochrome c oxidase subunit 2 DNA level; test: Mitochondrial toxicity in human HepG2 cells assessed as inhibition of cytochrome c oxidase subunit 2 DNA level at 12.5 uM followed by medium plus drugs replenishment every 3 to 4 days for 14 days relative to control; type: cell-based
[5] = molecular target: RNA-directed RNA polymerase (Hepacivirus hominis) (UniProt O39930); details: Hepatitis C virus subtype 1b
Chain of RNA-directed RNA polymerase (Hepacivirus hominis) (O39930 1-591): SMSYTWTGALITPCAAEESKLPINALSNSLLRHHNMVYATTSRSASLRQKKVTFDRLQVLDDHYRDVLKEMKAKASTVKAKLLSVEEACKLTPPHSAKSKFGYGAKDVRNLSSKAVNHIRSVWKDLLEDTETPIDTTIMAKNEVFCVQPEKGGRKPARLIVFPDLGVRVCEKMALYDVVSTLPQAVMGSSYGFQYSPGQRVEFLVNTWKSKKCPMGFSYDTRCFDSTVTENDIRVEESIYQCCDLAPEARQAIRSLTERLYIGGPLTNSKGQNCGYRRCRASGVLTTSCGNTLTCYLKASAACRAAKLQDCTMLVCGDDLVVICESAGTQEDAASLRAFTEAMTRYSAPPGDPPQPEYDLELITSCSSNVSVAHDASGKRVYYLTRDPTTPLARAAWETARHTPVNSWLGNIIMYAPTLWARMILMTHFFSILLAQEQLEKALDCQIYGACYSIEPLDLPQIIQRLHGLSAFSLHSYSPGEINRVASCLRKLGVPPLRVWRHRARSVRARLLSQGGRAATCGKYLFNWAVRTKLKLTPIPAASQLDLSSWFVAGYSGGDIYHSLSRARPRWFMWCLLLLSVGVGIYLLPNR
Description: Inhibition of NS5B polymerase in wild type HCV genotype 1b infected in human Huh7 replicon cells after 5 days by RT-PCR assay

[6] = system: cytochrome c oxidase subunit 2 DNA level; test: Mitochondrial toxicity in human HepG2 cells assessed as inhibition of cytochrome c oxidase subunit 2 DNA level at 50 uM followed by medium plus drugs replenishment every 3 to 4 days for 14 days relative to control; type: cell-based
HepG2 [7] = test: Mitochondrial toxicity in human HepG2 cells assessed as lactic acid production at 50 uM followed by medium plus drugs replenishment every 3 to 4 days for 14 days relative to control; type: cell-based; details: hepg2, 336 h
[8] = molecular target: RNA-directed RNA polymerase (Hepacivirus hominis) (UniProt O39930); test: Inhibition of NS5B polymerase in HCV genotype 2a infected in human HuH7 replicon cells after 5 days by RT-PCR analysis; type: cell-based; details: Hepatitis C virus subtype 2a
[9] = (§1) Cytotoxicity against human PBMC assessed reduction in cell viability after 5 days by MTT assay; type: cell-based; details: PBMC
HepG2 [10] = test: Mitochondrial toxicity in human HepG2 cells assessed as lactic acid production at 12.5 uM followed by medium plus drugs replenishment every 3 to 4 days for 14 days relative to control; type: cell-based; details: hepg2, 336 h
[11] = Cytotoxicity against human HuH7 cells assessed reduction in cell viability after 3 to 5 days by MTT assay; type: cell-based, Huh-7
[12] = (§2) Cytotoxicity against human CCRF-CEM assessed reduction in cell viability after 4 days by MTT assay; type: cell-based; details: CCRF-CEM cells
[13] = system: nuclear ribosomal-DNA level; test: in vitro; details: human, HepG2 cells
[14] = Cardiotoxicity against human embryonic stem cell-induced ventricular cardiomyocytes administered on day 7 and measured on day 10 after 30 mins incubation by CellTiter Glo assay; type: toxicity, cell-based, Cardiac muscle cell
[15] = molecular target: RNA-directed RNA polymerase (Hepacivirus hominis) (UniProt O39930); details: genotype 1b/3a
Description: Inhibition of NS5B polymerase in HCV genotype 1b/3a chimeric replicon infected in human HuH7 replicon cells after 5 days by RT-PCR analysis

[16] = Nephrotoxicity in human HK2 cells after 72 hrs by Hoechst 33342/HCS live/dead green dye-based assay; type: toxicity, cell-based, HK-2
[17] = molecular target: RNA-directed RNA polymerase (Hepacivirus hominis) (UniProt O39930); test: Inhibition of NS5B polymerase in HCV genotype 1b/4a chimeric replicon infected in human HuH7 replicon cells after 5 days by RT-PCR analysis; type: cell-based
[18] = system: nuclear ribosomal-DNA level; test: Mitochondrial toxicity in human HepG2 cells assessed as inhibition of nuclear ribosomal-DNA level at 50 uM followed by medium plus drugs replenishment every 3 to 4 days for 14 days relative to control; type: cell-based
[19] = Drug metabolism in human primary hepatocytes assessed as Tmax for NTP formation at 10 uM after 2 to 48 hrs by LC-MS/MS analysis; type: ADME, cell-based, Hepatocyte
[20] = system: nuclear ribosomal-DNA level; test: in vitro; details: human, HepG2 cells; remark: listed apart in the source
HepG2 [21] = test: Mitochondrial toxicity in human HepG2 cells 10 uM followed by medium plus drugs replenishment every 3 to 4 days for 14 days relative to control; type: cell-based; details: hepg2, 336 h
[22] = system: cytochrome c oxidase subunit 2 DNA level; test: Mitochondrial toxicity in human HepG2 cells assessed as inhibition of cytochrome c oxidase subunit 2 DNA level at 10 uM followed by medium plus drugs replenishment every 3 to 4 days for 14 days relative to control; type: cell-based
PBMC = test: as §1; type: cell-based; details: pbmc, 120 h
CCRF-CEM = test: as §2; type: cell-based; details: ccrf-cem, 96 h
[23] = Prodrug activation in Beagle dog liver assessed as assessed as formation of triphosphate form parent nucleoside at 10 mg/kg, po measured at 4 hrs by LC-MS/MS analysis; details: in vivo
in vitro [24] = details: human, liver microsomes
Description: Half life in human liver microsomes in presence of NADPH regenerating system by LC/MS/MS analysis

[25] = Drug metabolism in human HuH7 cells assessed as Tmax for NTP formation at 10 uM after 2 to 48 hrs by LC-MS/MS analysis; type: ADME, cell-based; details: huh-7, 10 µM
[26] = system: nuclear ribosomal-DNA level; test: Mitochondrial toxicity in human HepG2 cells assessed as inhibition of nuclear ribosomal-DNA level at 25 uM followed by medium plus drugs replenishment every 3 to 4 days for 14 days relative to control; type: cell-based
[27] = Drug uptake in Beagle dog liver at 10 mg/kg, po measured up to 4 hrs by LC-MS/MS analysis; details: in vivo, BLD = below limit of detection
[28] = Stability in simulated intestinal fluid after 24 hrs by LC/MS/MS analysis; type: ADME; details: simulated gi fluid
[29] = Mitochondrial toxicity in human HepG2 cells assessed as reduction in cell viability after 14 days in presence of galactose supplemented media by ATP depletion assay; type: cell-based
in vitro [30] = details: human, liver microsomes; remark: listed apart in the source
Description: Intrinsic clearance in human liver measured from intrinsic clearance in human liver microsomes in presence of NADPH regenerating system by LC/MS/MS analysis

HepG2 [31] = test: Mitochondrial toxicity in human HepG2 cells assessed as lactic acid production at 25 uM followed by medium plus drugs replenishment every 3 to 4 days for 14 days relative to control; type: cell-based; details: hepg2, 336 h
[32] = Half life in human intestinal microsomes by LC/MS/MS analysis; type: ADME, Intestine, Microsome
[33] = molecular target: RNA-directed RNA polymerase (Hepacivirus hominis) (UniProt O39930); test: Inhibition of NS5B polymerase in HCV genotype 1b/5a chimeric replicon infected in human HuH7 replicon cells after 5 days by RT-PCR analysis; type: cell-based
in vitro [34] = details: human, liver microsomes; remark: listed apart in the source
Description: Intrinsic clearance in human liver microsomes in presence of NADPH regenerating system by LC/MS/MS analysis

Bone marrow cell [35] = test: Cytotoxicity against human bone marrow cells assessed as inhibition of colony-forming unit-granulocyte after 14 days by FACS analysis; type: cell-based; details: 336 h
[36] = Mitochondrial toxicity in human HepG2 cells assessed as reduction in cell viability after 3 days in presence of galactose supplemented media by ATP depletion assay; type: cell-based
Bone marrow cell [37] = test: Cytotoxicity against human bone marrow cells assessed as inhibition of burst forming unit-erythroid after 14 days by FACS analysis; type: cell-based; details: 336 h
[38] = Mitochondrial toxicity in human HepG2 cells assessed as reduction in cell viability after 3 days in presence of glucose supplemented media by ATP depletion assay; type: cell-based
in vitro [39] = details: human, liver microsomes; remark: listed apart in the source
Description: Stability in human liver microsomes assessed as compound remaining in absence of NADPH regenerating system after 60 mins by LC/MS/MS analysis

[40] = Mitochondrial toxicity in human HepG2 cells assessed as reduction in cell viability after 14 days in presence of glucose supplemented media by ATP depletion assay; type: cell-based
[41] = Stability in human plasma assessed as compound remaining at 2 uM after 120 mins by LC/MS/MS analysis; type: ADME, cell-free; details: read-out: Stability

CC(C)OC(=O)[C@H](C)N[P@](=O)(OC[C@H]1O[C@@H](n2ccc(=O)[nH]c2=O)[C@](C)(F)[C@@H]1O)Oc1ccccc1 [SOFOSBUVIR]
CC50 at 336 h [1]: 44 µM
inhibition at 336 h, 12.5 µM [2]: 3.1%
IC50 at 14 days [3]: > 50 µM
inhibition at 336 h, 12.5 µM [4]: 6.7%
EC90 [5]: 0.15 to 0.9 µM
inhibition at 336 h, 50 µM [6]: 44%
Activity (HepG2 [7]): 180%
EC90 [8]: 0.13 µM
CC50 at 120 h [9]: > 100 µM
Activity (HepG2 [10]): 79%
CC50 [11]: > 100 µM
CC50 at 96 h [12]: > 100 µM
IC50 at 14 days [13]: 45 µM
CC50 at 0.5 h [14]: > 100 µM
EC90 [15]: 0.37 µM
CC50 at 72 h [16]: > 300 µM
EC90 [17]: 0.15 µM
inhibition at 336 h, 50 µM [18]: 58%
Tmax [19]: 12 h

Nc1ccn([C@H]2CC[C@@H](CO)O2)c(=O)n1 [ZALCITABINE]
inhibition at 336 h, 10 µM [20]: 50%
IC50 at 14 days [3]: < 10 µM
Activity (HepG2 [21]): 200%
IC50 at 14 days [13]: < 10 µM
inhibition at 336 h, 10 µM [22]: 84%

C[C@@]1(O)[C@H](O)[C@@H](CO)O[C@H]1n1ccc(N)nc1=O
EC90 [5]: 9.9 µM
CC50 (PBMC): 60 µM
CC50 [11]: > 100 µM
CC50 (CCRF-CEM): 22 µM

CC(C)OC(=O)[C@H](C)N[P@](=O)(OC[C@H]1O[C@@H](n2ccc(=O)[nH]c2=O)[C@@](F)(Br)[C@@H]1O)Oc1ccccc1 (single isomer, unassigned)
Drug metabolism [23]: 20130 ng/mL
inhibition at 336 h, 12.5 µM [2]: 11%
half-life (in vitro [24]): 0.328 h
inhibition at 336 h, 12.5 µM [4]: 23%
Tmax [25]: 12 h
EC90 [5]: 0.074 to 0.28 µM
inhibition at 336 h, 50 µM [6]: 58%
inhibition at 336 h, 25 µM [26]: 39%
Activity (HepG2 [7]): 220%
Drug uptake [27]: Bld
Stability [28]: Stable
EC90 [8]: 0.077 µM
CC50 at 120 h [9]: > 100 µM
IC50 at 14 days [29]: > 100 µM
Activity (HepG2 [10]): 90%
CC50 [11]: > 10 µM
CC50 at 96 h [12]: > 100 µM
IC50 at 14 days [13]: 32 µM
CLint scaled (in vitro [30]): 63.2 mL/min/kg
Activity (HepG2 [31]): 120%
half-life [32]: > 2.42 h
EC90 [33]: 0.083 µM
IC50 at 3 days [14]: > 100 µM
microsomal CLint (in vitro [34]): 70.2 µL/min/mg
IC50 (Bone marrow cell [35]): 76 µM
IC50 at 3 days [36]: > 100 µM
EC90 [17]: 0.13 µM
IC50 (Bone marrow cell [37]): 72 µM
inhibition at 336 h, 50 µM [18]: 72%
IC50 at 3 days [38]: > 100 µM
remaining at 1 h (in vitro [39]): 3.7%
IC50 at 14 days [40]: > 100 µM
remaining at 2 h, 2 µM [41]: 90%
